Source: PubChem BioAssay AID2060892 (Molecular Pharmacology Branch, DTP, NCI, 2025)

Test system: HOP-62 complex spheroids with HUVEC/MSC, viability
Assay: Anticancer human tumor HOP-62 cell line growth inhibition [RAS];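 further: spheroids exposed to agents for seven days before readout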;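 on viability, T/C: 100% = DMSO vehicle control viability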
Details: for IC50: curve of first compound; for viability, T/C: stronger effect = lower value
Method in brief: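 Agents were tested in combination matrices in half-log decrements from a top concentration at or near clinical Cmax (10 microM if undetermined). Targets were multi-cell spheroids of tumour lines plus HUVEC and MSC stromal cells.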

[1] = second compound 0.00316 µM, first compound 0.000949 µM
[2] = second compound 0.00316 µM, first compound 0.003 µM
[3] = second compound 0.00316 µM, first compound 0.00949 µM
[4] = second compound 0.00316 µM, first compound 0.03 µM
[5] = second compound 0.00316 µM, first compound 0.0949 µM
[6] = second compound 0.00316 µM, first compound 0.3 µM
[7] = second compound 0.01 µM, first compound 0.000949 µM
[8] = second compound 0.01 µM, first compound 0.003 µM
[9] = second compound 0.01 µM, first compound 0.00949 µM
[10] = second compound 0.01 µM, first compound 0.03 µM
[11] = second compound 0.01 µM, first compound 0.0949 µM
[12] = second compound 0.01 µM, first compound 0.3 µM
[13] = second compound 0.0316 µM, first compound 0.000949 µM
[14] = second compound 0.0316 µM, first compound 0.003 µM
[15] = second compound 0.0316 µM, first compound 0.00949 µM
[16] = second compound 0.0316 µM, first compound 0.03 µM
[17] = second compound 0.0316 µM, first compound 0.0949 µM
[18] = second compound 0.0316 µM, first compound 0.3 µM
[19] = second compound 0.1 µM, first compound 0.000949 µM
[20] = second compound 0.1 µM, first compound 0.003 µM
[21] = second compound 0.1 µM, first compound 0.00949 µM
[22] = second compound 0.1 µM, first compound 0.03 µM
[23] = second compound 0.1 µM, first compound 0.0949 µM
[24] = second compound 0.1 µM, first compound 0.3 µM
[25] = second compound 0.316 µM, first compound 0.000949 µM
[26] = second compound 0.316 µM, first compound 0.003 µM
[27] = second compound 0.316 µM, first compound 0.00949 µM
[28] = second compound 0.316 µM, first compound 0.03 µM
[29] = second compound 0.316 µM, first compound 0.0949 µM
[30] = second compound 0.316 µM, first compound 0.3 µM
[31] = second compound 1 µM, first compound 0.000949 µM
[32] = second compound 1 µM, first compound 0.003 µM
[33] = second compound 1 µM, first compound 0.00949 µM
[34] = second compound 1 µM, first compound 0.03 µM
[35] = second compound 1 µM, first compound 0.0949 µM
[36] = second compound 1 µM, first compound 0.3 µM

## CC(=O)OC12COC1CC(O)C1(C)C(=O)C(O)C3=C(C)C(OC(=O)C(O)C(NC(=O)OC(C)(C)C)c4ccccc4)CC(O)(C(OC(=O)c4ccccc4)C21)C3(C)C (stereo unspecified) + C=CC(=O)N1CCN(c2nc(OCC3CCCN3C)nc3c(F)c(-c4nc(N)cc(C)c4C(F)(F)F)c(Cl)cc23)C(C)C1
Second compound 0.00316 µM
  IC50: < 31.6 nM
Second compound 0.01 µM
  IC50: < 31.6 nM
Second compound 0.0316 µM
  IC50: < 31.6 nM
Second compound 0.1 µM
  IC50: < 31.6 nM
Second compound 0.316 µM
  IC50: < 31.6 nM
Second compound 1 µM
  IC50: < 31.6 nM
Second compound 0.00316 µM, first compound 0.0316 µM
  viability, T/C: 11.2%
Second compound 0.00316 µM, first compound 0.1 µM
  viability, T/C: 14.7%
Second compound 0.00316 µM, first compound 0.316 µM
  viability, T/C: 10.4%
Second compound 0.00316 µM, first compound 1 µM
  viability, T/C: 12.3%
Second compound 0.00316 µM, first compound 3.16 µM
  viability, T/C: 15.1%
Second compound 0.00316 µM, first compound 10 µM
  viability, T/C: 20.3%
Second compound 0.01 µM, first compound 0.0316 µM
  viability, T/C: 10.4%
Second compound 0.01 µM, first compound 0.1 µM
  viability, T/C: 11.1%
Second compound 0.01 µM, first compound 0.316 µM
  viability, T/C: 13.4%
Second compound 0.01 µM, first compound 1 µM
  viability, T/C: 10.4%
Second compound 0.01 µM, first compound 3.16 µM
  viability, T/C: 12.5%
Second compound 0.01 µM, first compound 10 µM
  viability, T/C: 16.6%
Second compound 0.0316 µM, first compound 0.0316 µM
  viability, T/C: 9.88%
Second compound 0.0316 µM, first compound 0.1 µM
  viability, T/C: 11.9%
Second compound 0.0316 µM, first compound 0.316 µM
  viability, T/C: 11%
Second compound 0.0316 µM, first compound 1 µM
  viability, T/C: 13%
Second compound 0.0316 µM, first compound 3.16 µM
  viability, T/C: 15.2%
Second compound 0.0316 µM, first compound 10 µM
  viability, T/C: 14.6%
Second compound 0.1 µM, first compound 0.0316 µM
  viability, T/C: 11.6%
Second compound 0.1 µM, first compound 0.1 µM
  viability, T/C: 12.4%
Second compound 0.1 µM, first compound 0.316 µM
  viability, T/C: 11.9%
Second compound 0.1 µM, first compound 1 µM
  viability, T/C: 13.6%
Second compound 0.1 µM, first compound 3.16 µM
  viability, T/C: 15.2%
Second compound 0.1 µM, first compound 10 µM
  viability, T/C: 19%
Second compound 0.316 µM, first compound 0.0316 µM
  viability, T/C: 9.18%
Second compound 0.316 µM, first compound 0.1 µM
  viability, T/C: 9.55%
Second compound 0.316 µM, first compound 0.316 µM
  viability, T/C: 10.4%
Second compound 0.316 µM, first compound 1 µM
  viability, T/C: 10.9%
Second compound 0.316 µM, first compound 3.16 µM
  viability, T/C: 14.8%
Second compound 0.316 µM, first compound 10 µM
  viability, T/C: 20.1%
Second compound 1 µM, first compound 0.0316 µM
  viability, T/C: 10.2%
Second compound 1 µM, first compound 0.1 µM
  viability, T/C: 10.5%
Second compound 1 µM, first compound 0.316 µM
  viability, T/C: 13%
Second compound 1 µM, first compound 1 µM
  viability, T/C: 14.2%
Second compound 1 µM, first compound 3.16 µM
  viability, T/C: 15.5%
Second compound 1 µM, first compound 10 µM
  viability, T/C: 20.1%

## CC1(C)CCC(Nc2ncc(C(F)(F)F)c(-c3c[nH]c4c(P(C)(C)=O)c(C#N)ccc34)n2)CN1 (stereo unspecified) + C=CC(=O)N1CCN(c2nc(OCC3CCCN3C)nc3c(F)c(-c4nc(N)cc(C)c4C(F)(F)F)c(Cl)cc23)C(C)C1
Second compound 0.00316 µM
  IC50: < 0.949 nM
Second compound 0.01 µM
  IC50: 0.977 nM
Second compound 0.0316 µM
  IC50: < 0.949 nM
Second compound 0.1 µM
  IC50: < 0.949 nM
Second compound 0.316 µM
  IC50: < 0.949 nM
Second compound 1 µM
  IC50: 0.959 nM
[1]
  viability, T/C: 49.6%
[2]
  viability, T/C: 25%
[3]
  viability, T/C: 19.8%
[4]
  viability, T/C: 15.8%
[5]
  viability, T/C: 20.4%
[6]
  viability, T/C: 21.5%
[7]
  viability, T/C: 50.7%
[8]
  viability, T/C: 24%
[9]
  viability, T/C: 20.3%
[10]
  viability, T/C: 16.4%
[11]
  viability, T/C: 20%
[12]
  viability, T/C: 19.8%
[13]
  viability, T/C: 45.2%
[14]
  viability, T/C: 23.8%
[15]
  viability, T/C: 19.6%
[16]
  viability, T/C: 15.4%
[17]
  viability, T/C: 20.8%
[18]
  viability, T/C: 22.5%
[19]
  viability, T/C: 45.1%
[20]
  viability, T/C: 22.6%
[21]
  viability, T/C: 21.2%
[22]
  viability, T/C: 17.5%
[23]
  viability, T/C: 16%
[24]
  viability, T/C: 20%
[25]
  viability, T/C: 48.8%
[26]
  viability, T/C: 25.8%
[27]
  viability, T/C: 19.7%
[28]
  viability, T/C: 16.8%
[29]
  viability, T/C: 21.2%
[30]
  viability, T/C: 22.7%
[31]
  viability, T/C: 50.3%
[32]
  viability, T/C: 20.7%
[33]
  viability, T/C: 18.4%
[34]
  viability, T/C: 19.6%
[35]
  viability, T/C: 17.6%
[36]
  viability, T/C: 19.1%

## CCc1c2c(nc3ccc(O)cc13)-c1cc3c(c(=O)n1C2)COC(=O)[C@]3(O)CC + C=CC(=O)N1CCN(c2nc(OCC3CCCN3C)nc3c(F)c(-c4nc(N)cc(C)c4C(F)(F)F)c(Cl)cc23)C(C)C1
Second compound 0.00316 µM
  IC50: < 0.949 nM
Second compound 0.01 µM
  IC50: < 0.949 nM
Second compound 0.0316 µM
  IC50: < 0.949 nM
Second compound 0.1 µM
  IC50: < 0.949 nM
Second compound 0.316 µM
  IC50: < 0.949 nM
Second compound 1 µM
  IC50: < 0.949 nM
[1]
  viability, T/C: 46.5%
[2]
  viability, T/C: 11.8%
[3]
  viability, T/C: 6.88%
[4]
  viability, T/C: 3.96%
[5]
  viability, T/C: 2.91%
[6]
  viability, T/C: 4.33%
[7]
  viability, T/C: 47.3%
[8]
  viability, T/C: 11.6%
[9]
  viability, T/C: 6.73%
[10]
  viability, T/C: 4.31%
[11]
  viability, T/C: 3.65%
[12]
  viability, T/C: 2.46%
[13]
  viability, T/C: 42.5%
[14]
  viability, T/C: 9.52%
[15]
  viability, T/C: 5.4%
[16]
  viability, T/C: 3.77%
[17]
  viability, T/C: 2.66%
[18]
  viability, T/C: 2.57%
[19]
  viability, T/C: 47.7%
[20]
  viability, T/C: 10.1%
[21]
  viability, T/C: 6.42%
[22]
  viability, T/C: 3.2%
[23]
  viability, T/C: 3.67%
[24]
  viability, T/C: 2.48%
[25]
  viability, T/C: 40.5%
[26]
  viability, T/C: 10.3%
[27]
  viability, T/C: 8.01%
[28]
  viability, T/C: 5.51%
[29]
  viability, T/C: 4.05%
[30]
  viability, T/C: 2.72%
[31]
  viability, T/C: 43.2%
[32]
  viability, T/C: 12.4%
[33]
  viability, T/C: 6.37%
[34]
  viability, T/C: 4.48%
[35]
  viability, T/C: 2.92%
[36]
  viability, T/C: 2.71%
